# Literature values, collected in US20130344180A1, “WEIGHT LOSS AND SATIATION COMPOSITION” (YL HOLDINGS, INC., priority 2012, published 2013).
# Assays:
# [1] = tested on: E1, E2, and E3 isozymes of retinaldehyde dehydrogenase (Raldh)
# [2] = mice and rats
# cellular metabolism = details: by increasing cellular metabolism
# prostate gland tumors = details: various strains of rats
# [3] = mice and rats; remark: listed apart in the source
# [4] = in vivo
# [5] = tested on: adipocyte differentiation
# PPARγ = PPARγ (Homo sapiens, UniProt P37231)
# Chain of PPARγ (P37231 whole entry, species assumed): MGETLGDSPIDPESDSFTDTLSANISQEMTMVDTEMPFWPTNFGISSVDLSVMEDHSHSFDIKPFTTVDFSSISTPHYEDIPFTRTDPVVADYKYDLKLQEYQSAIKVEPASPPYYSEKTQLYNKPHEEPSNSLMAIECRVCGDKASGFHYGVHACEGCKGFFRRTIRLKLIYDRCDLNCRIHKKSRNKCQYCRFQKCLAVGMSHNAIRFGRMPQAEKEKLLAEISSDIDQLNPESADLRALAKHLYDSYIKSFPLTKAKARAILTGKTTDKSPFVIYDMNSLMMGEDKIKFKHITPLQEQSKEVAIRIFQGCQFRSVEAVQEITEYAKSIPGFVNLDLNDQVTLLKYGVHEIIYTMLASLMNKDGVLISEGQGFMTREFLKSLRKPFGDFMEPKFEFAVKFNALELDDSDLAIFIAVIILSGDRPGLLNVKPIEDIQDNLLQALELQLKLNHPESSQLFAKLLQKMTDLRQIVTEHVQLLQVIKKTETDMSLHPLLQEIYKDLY
# [6] = tested on: fat cells in white adipose tissue; details: by increasing the expression of thermogenin
molecule,measurement,setting,value
"CC(C)=CCCC(C)=CC=O [Citral, 3,7-dimethyl-2,6-octadienal]","inhibition of E1, E2, and E3 isozymes of retinaldehyde dehydrogenase (Raldh)",[1],competitively inhibits
same,carcinogenic potential,[2],does not possess carcinogenic potential
same,thermogenic response,cellular metabolism,provide thermogenic response
same,effect against prostate gland tumors,prostate gland tumors,effective
same,toxicity,[3],non-toxic
CCCC\C=C/C=C/C=C\CCCCCCCC(=O)O [punicic acid],high-fat-diet induced obesity and insulin resistance,[4],suppression
same,adipocyte differentiation,[5],suppression
same,ligand of PPARγ,PPARγ,acts as a ligand
Fucoxanthin,fat burning within fat cells,[6],promote fat burning
